Laboratory results published in patent US7615639B2, “1-pyridyl-benzofuro[3,2-b]pyridin-2(1H)-ones” (Tibotec Pharmaceuticals, Ltd., priority 2004, dated 2009).

System: HIV
Assay: Cellular assay: anti-viral activity in HIV-infected MT4 cells (MTT read-out)
Format: cell-based
Details: Human immunodeficiency virus 1, 120 h, five days incubation, MTT cell viability, negative logarithm of EC50 (protection of 50% of cells from cytopathogenic effect of the virus)
Procedure: The compounds of the present invention were examined for anti-viral activity in a cellular assay, which was performed according to the following procedure.
HIV- or mock-infected MT4 cells were incubated for five days in the presence of various concentrations of the inhibitor. At the end of the incubation period, the replicating virus in the control cultures has killed all HIV-infected cells in the absence of any inhibitor. Cell viability was determined by measuring the concentration of MTT, a yellow, water soluble tetrazolium dye that is converted to a purple, water insoluble formazan in the mitochondria of living cells only. Upon solubilization of the resulting formazan crystals with isopropanol, the absorbance of the solution was monitored at 540 nm. The values correlate directly to the number of living cells remaining in the culture at the completion of the five day incubation. The inhibitory activity of the compound was monitored on the virus-infected cells and was expressed as EC50 and EC90. These values represent the amount of the compound required to protect 50% and 90%, respectively, of the cells from the cytopathogenic effect of the virus. The toxicity of the compound was measured on the mock-infected cells and was expressed as CC50, which represents the concentration of compound required to inhibit the growth of the cells by 50%. The selectivity index (SI) (ratio CC50/EC50) is an indication of the selectivity of the anti-HIV activity of the inhibitor. Wherever results are reported as e.g. pEC50 or pCC50 values, the result is expressed as the negative logarithm of the result expressed as EC50 or CC50 respectively.

| EC50 [µM] | SMILES |
| --- | --- |
| 12.6 | Cn1c2ccccc2c2c1ccc(=O)n2-c1cc2ccccc2s1 [Compound 6] |
| 0.794 | Cn1c2ccccc2c2c1cc(C#N)c(=O)n2-c1ccc(Cl)nc1 [Compound 7, 1-(6-Chloropyridin-3-yl)-5-methyl-2-oxo-2,5-dihydro-1H-pyrido[3,2-b]indole-3-carbonitrile] |
| 2.51 | Cn1c2ccccc2c2c1cc(C#N)c(=O)n2-c1cnc2ccccc2c1 [Compound 9] |
| 20 | Cn1c2ccccc2c2c1cc(C#N)c(=O)n2-c1cncnc1 [Compound 11] |
| 10 | Cn1c2ccccc2c2c1cc(C#N)c(=O)n2-c1ccc(C#N)nc1 [Compound 14] |
| 6.31 | Cn1ccc2cc(-n3c(=O)ccc4c3c3ccccc3n4C)ccc21 [Compound 17] |
| 15.8 | N#Cc1cc2[nH]c3ccccc3c2n(-c2ccnc(Cl)c2)c1=O [Compound 19] |
| 5.01 | Cn1c2ccccc2c2c1cc(C#N)c(=O)n2-c1ccnc(C(N)=O)c1 [Compound 20] |
| 12.6 | Cn1c2ccccc2c2c1cc(C#N)c(=O)n2-c1ccc2nc(C(F)(F)F)cn2c1 [Compound 21] |
| 2.51 | N#Cc1cc2[nH]c3ccccc3c2n(-c2ccc(Cl)nc2)c1=O [Compound 26] |
| 6.31 | Cn1c2ccccc2c2c1ccc(=O)n2-c1cnc2ccccc2c1 [Compound 27] |
| 3.16 | Cn1c2ccccc2c2c1cc(C#N)c(=O)n2-c1ccc(Br)nc1 [Compound 28] |
| 1 | Cc1ccc(-n2c(=O)c(C#N)cc3c2c2ccccc2n3C)cn1 [Compound 32, 5-Methyl-1-(6-methyl-pyridin-3-yl)-2-oxo-2,5-dihydro-1H-pyrido[3,2-b]indole-3-carbonitrile] |
| 0.794 | Cc1cc(-n2c(=O)c(C#N)cc3c2c2ccccc2n3C)cnc1Cl [Compound 34, 1-(6-Chloro-5-methyl-pyridin-3-yl)-5-methyl-2-oxo-2,5-dihydro-1H-pyrido[3,2-b]-indole-3-carbonitrile] |
| 3.16 | COc1ccc(-n2c(=O)c(C#N)cc3c2c2ccccc2n3C)cn1 [Compound 35] |
| 7.94 | Cn1c2ccccc2c2c1cc(C#N)c(=O)n2-c1ccc(F)nc1 [Compound 36] |
| 2.51 | COc1ncc(-n2c(=O)c(C#N)cc3c2c2ccccc2n3C)cn1 [Compound 37] |
| 3.98 | Cn1c2ccc(O)cc2c2c1cc(C#N)c(=O)n2-c1ccc(Cl)nc1 [Compound 43, 1-(6-Chloro-pyridin-3-yl)-8-hydroxy-5-methyl-2-oxo-2,5-dihydro-1H-pyrido[3,2-b]-indole-3-carbonitrile] |
